# Data published in patent publication US20130337579A1, “Methods for Determining Protein Ligand Binding” (UNIVERSITY OF MARYLAND, COLLEGE PARK, priority 2010, published 2013).
# Tests used:
# [1] = molecular target: T1, P. aeruginosa Alg44PilZ (His-MBP-Alg44PilZ) (Pseudomonas aeruginosa, UniProt Q9HY69); test: biochemical; format: binding
# T1 construct: His-MBP-Alg44PilZ was varied from 100 μM to 6 nM; made in house; host or cells: E. coli BL21(DE3)
# Source text: DRaCALA exploits the ability of nitrocellulose membranes to preferentially sequester proteins over small molecule ligands. When a mixture of protein and radiolabeled ligand is spotted onto a dry nitrocellulose membrane, protein and bound ligand are immobilized at the site of contact while free ligand is mobilized by capillary action with the liquid phase (FIG. 1A). DRaCALA is a rapid assay, as the capillary action can be completed in less than 5 seconds. […] Because capillary action distributes the unbound ligand throughout the mobile phase, the calculation for the fraction bound (FB) can be corrected for this background (see below for edge effects at the solvent front and annulation of the protein). Therefore, FB is defined by the equation in FIG. 1B, where Iinner is the intensity of signal in the area with protein (inner circle) and Itotal is the total signal of the entire sample (outer circle). The Iinner signal consists of both ligand bound to protein and unbound ligand that has not mobilized beyond the area of the inner circle, which we define as Ibackground. Ibackground can be calculated by subtracting the signal intensity of the Iinner from the total ligand Itotal and adjusting for the relative areas of the inner (Ainner) and outer circles (Atotal) (FIG. 1B).
# Radiolabeled ligands were incubated with each of the proteins and the mixtures were spotted on nitrocellulose. After spreading by capillary action, membranes were dried and quantitated by phosphorimager. […] The specificity of Alg44PilZ binding to cdiGMP was further tested by competition with excess unlabeled nucleotides (400-fold molar excess relative to the Alg44PilZ protein).
# Kd can be measured by altering either the protein or ligand concentrations in titration experiments; since DRaCALA detects only the ligand mobility, ligand concentrations can be always held constant. […] Since the assay is completed in less than 5 seconds, DRaCALA can also be used to determine the koff for those protein-ligand complexes with slower off rates. koff was determined for cdiGMP and Alg44PilZ by spotting at the indicated time points after the addition of 1 mM unlabeled cdiGMP to a pre-incubated mixture of Alg44PilZ and ^32P-cdiGMP (FIG. 3C). […] Both edge and annulation effects are explained in FIG. 8. The edge effect is due to evaporation of the solvent during the time of the experiment, and is dependent on the humidity of the local environment around the nitrocellulose support. The evaporation results in a smaller total area (Atotal observed in FIG. 8A) and leads to an increased value in the calculated Ibackground. As a secondary correction for the edge effect, the fraction bound determined for spotted ligand in the absence of protein can be subtracted from all samples in parallel (FIG. 8B).
# HisMBP-Alg44PilZ = molecular target: T2, HisMBP-Alg44PilZ (Pseudomonas aeruginosa, UniProt Q9HY69); test: DRaCALA competition of cold nucleotides with 32P-cdiGMP binding to HisMBP-Alg44PilZ; set-up: species or system P. aeruginosa; conditions: 4 nM 32P-cdiGMP
# T2 construct: His-MBP-Alg44PilZ was varied from 100 μM to 6 nM; made in house; host or cells: E. coli BL21(DE3)
# Protocol: FIG. 2. Detection of specific protein-ligand interactions by DRaCALA. (A) DRaCALA images of interactions between purified proteins (20 μM) incubated with 500 nM ^14C-cAMP, 4 nM ^32P-ATP, or 4 nM ^32P-cdiGMP. Protein-ligand mixtures were spotted on nitrocellulose and allowed to dry prior to imaging using a Fuji FLA7100 phosphorimager. Cognate protein-nucleotide combinations are indicated by arrowheads. MBP was used as a negative control. (B) DRaCALA images of competition assays assessing the ability of 1 mM of the indicated cold nucleotides to compete with binding interactions between 4 nM ^32P-cdiGMP and 2.5 μM HisMBP-Alg44PilZ. (C) Graph of fraction bound for each sample in […] with averages indicated by a horizontal bar. NC indicates no competitor. P values were determined by a Student's t-test for significant differences when compared to the no-competitor (NC) control for three independent experiments. For total intensity of each DRaCALA spot in FIGS. 2A and 2B, see Tables 1 and 2, respectively.
# Radiolabeled ligands were incubated with each of the proteins and the mixtures were spotted on nitrocellulose. After spreading by capillary action, membranes were dried and quantitated by phosphorimager. […] Each of the radiolabel signals from MBP mixtures was distributed by capillary action (FIG. 2A). […] The specificity of Alg44PilZ binding to cdiGMP was further tested by competition with excess unlabeled nucleotides (400-fold molar excess relative to the Alg44PilZ protein). Alg44PilZ binding to ^32P-cdiGMP was abolished by cdiGMP, but not by cGMP, GMP, GDP, GTP, ATP, CTP or UTP as was previously described (FIG. 2B). The FB for cdiGMP was 0.31±0.07, which was reversed by competition with unlabeled cdiGMP to the background level of 0.04±0.01 (FIG. 2C).
# Protein or whole cell lysates in 1× cdiGMP binding buffer (20 μl) was mixed with 4 nM of radiolabeled nucleotide and allowed to incubate for 10 minutes at room temperature. Radiolabeled nucleotide was competed away by cold nucleotides in concentrations and for times indicated. Purified proteins were tested in technical replicates. Whole cell lysates in FIG. 4 and FIG. 12 were tested in biological triplicates. Whole cell lysates in FIG. 5 were tested in technical replicates. These mixtures were pipetted (2.5-5 μl) onto dry, untreated nitrocellulose (GE Healthcare) in triplicate and allowed to dry completely before quantification. An FLA7100 Fujifilm Life Science Phosphorimager was used to detect luminescence following a 5-minute exposure of blotted nitrocellulose to phosphorimager film. Data was quantified using Fujifilm Multi Gauge software v3.0.
# [2] = tested on: whole-cell lysates of P. aeruginosa strains; test: DRaCALA analysis of cdiGMP binding by whole-cell lysates of P. aeruginosa strains
# T2 sequence (Q9HY69 16-116): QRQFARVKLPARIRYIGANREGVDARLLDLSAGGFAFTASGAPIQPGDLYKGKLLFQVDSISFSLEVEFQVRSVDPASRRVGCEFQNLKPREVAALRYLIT
# T1 sequence (Q9HY69 16-116): as above
structure (smiles),measurement,setting,value
"Nc1nc2c(ncn2[C@@H]2O[C@@H]3CO[P@](=O)(O)O[C@H]4[C@@H](O)[C@H](n5cnc6c(=O)[nH]c(N)nc65)O[C@@H]4CO[P@](=O)(O)O[C@H]3[C@H]2O)c(=O)[nH]1 [cdiGMP, cyclic-di-GMP]",Kd,[1],1600 nM
same,koff,[1],0.017 ± 0.002 s⁻¹
same,binding to Alg44PilZ (sequestration of radiolabel signal),"[1]; 20 μM purified protein, 500 nM 14C-cAMP, 4 nM 32P-ATP or 4 nM 32P-cdiGMP",bound
same,time until 32P-cdiGMP binding completely competed away,[1]; 1 mM unlabeled cdiGMP,≤ 90 s
same,half-life (t1/2),"[1]; corresponding to koff, DRaCALA",35.6 ± 10.7 s
same,fraction bound (FB) after competition with unlabeled cdiGMP,HisMBP-Alg44PilZ; 1 mM unlabeled cdiGMP,0.04±0.01
same,fraction bound (FB),HisMBP-Alg44PilZ; no competitor,0.31±0.07
same,Alg44PilZ binding to 32P-cdiGMP abolished by unlabeled nucleotide,HisMBP-Alg44PilZ; 1 mM cold nucleotide (400-fold molar excess over protein),abolished
same,BSp,[2]; PA14 overexpressing diguanylate cyclase WspR,1.19
same,BSp,[2]; PA14 overexpressing phosphodiesterase RocR,3.51
same,BSp,[2]; PA14ΔpelD overexpressing RocR,2.70
same,average BSp of strain groups isolated from different sources,[2]; all groups,greater than 1.48
same,Average Bc,[2]; average over all P. aeruginosa lysates of the table,0.185
same,BSp,[2]; wild-type PA14 extract,1.27
